Data on four compounds can be found in ChEMBL document CHEMBL1201862, “PubChem BioAssay data set” (2004).

The source made the active and inactive calls. A value given as a limit tells only on which side of the number the result lay.

For test [1], the target named is T1, Nuclear receptor subfamily 0 group B member 1 (Homo sapiens, UniProt P51843).
T1 sequence (P51843 whole entry): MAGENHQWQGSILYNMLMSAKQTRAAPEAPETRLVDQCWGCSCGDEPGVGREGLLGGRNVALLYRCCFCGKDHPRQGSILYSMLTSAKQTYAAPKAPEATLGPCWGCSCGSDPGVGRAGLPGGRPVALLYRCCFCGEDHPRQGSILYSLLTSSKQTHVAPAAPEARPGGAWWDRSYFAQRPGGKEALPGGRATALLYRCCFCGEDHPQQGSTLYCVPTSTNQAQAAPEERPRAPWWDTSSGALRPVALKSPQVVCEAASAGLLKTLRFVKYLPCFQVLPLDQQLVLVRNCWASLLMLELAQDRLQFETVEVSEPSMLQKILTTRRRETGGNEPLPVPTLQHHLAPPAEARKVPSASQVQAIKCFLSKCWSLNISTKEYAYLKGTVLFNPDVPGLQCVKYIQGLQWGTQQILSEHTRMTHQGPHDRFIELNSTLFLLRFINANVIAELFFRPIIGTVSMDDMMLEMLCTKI
Kind of test: Luminescence-based cell-based high throughput dose response assay for inhibitors of the orphan nuclear receptor subfamily 0, group B, member 1 (DAX1; NR0B1). [Related pubchem assays (depositor defined):AID504766, AID504790]. It counts as functional.

A further test has as its system HEK293. Kind of test: cells. It counts as functional, cell-based. Conditions: Homo sapiens.
Test [2] deals with T2, Sentrin-specific protease 8 (Homo sapiens, UniProt Q96LD8).
T2 sequence (Q96LD8 whole entry): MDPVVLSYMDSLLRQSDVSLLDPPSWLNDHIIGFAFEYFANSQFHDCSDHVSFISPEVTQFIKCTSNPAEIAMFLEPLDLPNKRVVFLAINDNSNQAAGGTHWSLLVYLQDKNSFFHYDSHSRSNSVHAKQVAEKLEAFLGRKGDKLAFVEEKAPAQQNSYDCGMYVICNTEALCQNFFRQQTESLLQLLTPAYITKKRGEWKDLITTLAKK
The experiment in a line: SENP8 protease inhibitors, SAR follow-up, biochemical, luminescence (AID 504501). The test is classed as functional.

A further test deals with T3, Caspase-3 (Homo sapiens, UniProt P42574).
T3 sequence (P42574 whole entry): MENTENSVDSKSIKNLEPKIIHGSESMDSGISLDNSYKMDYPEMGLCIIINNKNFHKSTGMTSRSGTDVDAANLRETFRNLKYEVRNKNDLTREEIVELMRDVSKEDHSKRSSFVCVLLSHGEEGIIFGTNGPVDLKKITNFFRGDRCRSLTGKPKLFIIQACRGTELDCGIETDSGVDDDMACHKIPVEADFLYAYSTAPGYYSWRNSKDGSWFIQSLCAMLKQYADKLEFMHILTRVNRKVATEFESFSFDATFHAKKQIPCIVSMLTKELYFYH
Kind of test: SAR Analysis of small molecule inhibitors of Sentrin-specific proteases (SENPs) using a Caspase-3 Selectivity assay. [Related pubchem assays (depositor defined):AID2540, AID2599, AID434973, AID489001]. It counts as functional.

The target of test [3] is T4, Sentrin-specific protease 7 (Homo sapiens, UniProt Q9BQF6).
T4 sequence (Q9BQF6 whole entry): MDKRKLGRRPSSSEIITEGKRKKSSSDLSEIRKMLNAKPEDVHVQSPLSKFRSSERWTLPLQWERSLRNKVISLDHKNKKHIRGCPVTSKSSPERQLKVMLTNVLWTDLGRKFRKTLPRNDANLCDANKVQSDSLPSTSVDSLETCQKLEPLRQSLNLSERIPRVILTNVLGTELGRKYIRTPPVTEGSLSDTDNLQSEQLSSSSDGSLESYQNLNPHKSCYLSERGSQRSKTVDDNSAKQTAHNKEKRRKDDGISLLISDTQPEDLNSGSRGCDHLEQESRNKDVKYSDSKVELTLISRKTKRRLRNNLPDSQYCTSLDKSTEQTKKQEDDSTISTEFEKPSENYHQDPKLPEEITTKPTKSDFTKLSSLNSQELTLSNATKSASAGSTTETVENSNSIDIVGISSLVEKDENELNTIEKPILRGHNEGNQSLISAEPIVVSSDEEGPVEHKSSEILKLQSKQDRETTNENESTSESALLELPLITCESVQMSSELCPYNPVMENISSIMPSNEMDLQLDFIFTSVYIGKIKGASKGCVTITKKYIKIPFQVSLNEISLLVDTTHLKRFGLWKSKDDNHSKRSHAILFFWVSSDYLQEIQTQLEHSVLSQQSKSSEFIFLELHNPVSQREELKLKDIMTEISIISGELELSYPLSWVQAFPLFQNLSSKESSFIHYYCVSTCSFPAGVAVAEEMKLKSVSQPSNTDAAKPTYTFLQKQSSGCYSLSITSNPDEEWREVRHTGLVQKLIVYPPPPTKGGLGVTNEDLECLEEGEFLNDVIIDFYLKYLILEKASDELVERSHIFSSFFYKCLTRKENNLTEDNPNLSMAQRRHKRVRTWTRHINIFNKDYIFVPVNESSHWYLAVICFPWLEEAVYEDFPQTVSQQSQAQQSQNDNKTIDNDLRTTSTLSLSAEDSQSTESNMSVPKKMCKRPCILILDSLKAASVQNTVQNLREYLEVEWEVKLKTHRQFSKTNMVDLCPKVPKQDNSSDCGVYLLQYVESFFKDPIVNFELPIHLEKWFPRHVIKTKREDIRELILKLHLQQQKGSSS
Kind of test: SENP7 protease inhibitors, SAR follow-up, biochemical, luminescence (AID 504497). The test is classed as functional.

Test [4] has as its target T5, Sentrin-specific protease 6 (Homo sapiens, UniProt Q9GZR1).
T5 sequence (Q9GZR1 whole entry): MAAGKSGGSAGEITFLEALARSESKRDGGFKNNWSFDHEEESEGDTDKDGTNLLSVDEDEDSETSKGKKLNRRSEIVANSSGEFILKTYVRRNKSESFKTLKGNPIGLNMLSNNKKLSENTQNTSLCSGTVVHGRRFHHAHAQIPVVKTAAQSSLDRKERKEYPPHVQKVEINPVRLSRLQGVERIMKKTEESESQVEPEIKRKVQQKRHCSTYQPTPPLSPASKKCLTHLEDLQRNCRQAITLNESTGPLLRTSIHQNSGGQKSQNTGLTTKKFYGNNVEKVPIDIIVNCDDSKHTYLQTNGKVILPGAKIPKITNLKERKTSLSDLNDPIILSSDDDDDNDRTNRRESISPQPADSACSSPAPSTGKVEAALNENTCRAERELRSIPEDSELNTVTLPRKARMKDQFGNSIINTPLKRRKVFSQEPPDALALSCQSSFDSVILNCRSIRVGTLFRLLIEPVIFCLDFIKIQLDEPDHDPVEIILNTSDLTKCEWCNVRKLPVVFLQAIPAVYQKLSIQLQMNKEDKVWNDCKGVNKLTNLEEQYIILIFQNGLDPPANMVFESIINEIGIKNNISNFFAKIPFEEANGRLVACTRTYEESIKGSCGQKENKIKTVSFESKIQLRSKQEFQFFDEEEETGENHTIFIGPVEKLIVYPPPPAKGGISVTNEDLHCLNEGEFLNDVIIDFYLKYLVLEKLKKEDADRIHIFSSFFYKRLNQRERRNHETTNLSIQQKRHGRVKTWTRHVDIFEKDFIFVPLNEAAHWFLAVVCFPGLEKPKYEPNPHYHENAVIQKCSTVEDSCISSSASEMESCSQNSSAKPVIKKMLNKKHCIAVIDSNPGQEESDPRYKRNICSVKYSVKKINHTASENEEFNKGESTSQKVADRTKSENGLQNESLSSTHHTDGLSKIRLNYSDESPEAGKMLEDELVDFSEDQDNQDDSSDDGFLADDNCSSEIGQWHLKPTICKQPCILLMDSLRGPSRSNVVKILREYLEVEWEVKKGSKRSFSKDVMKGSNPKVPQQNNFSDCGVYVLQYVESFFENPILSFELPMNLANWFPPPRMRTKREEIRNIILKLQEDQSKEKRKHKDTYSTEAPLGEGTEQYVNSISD
The experiment in a line: SAR Analysis of small molecule inhibitors of Sentrin-specific protease 6 (SENP6) using a Luminescent assay. [Related pubchem assays (depositor defined):AID2582, AID2599]. The test is classed as functional.

In another test the target is T6, Caspase-6 (Homo sapiens, UniProt P55212).
T6 sequence (P55212 whole entry): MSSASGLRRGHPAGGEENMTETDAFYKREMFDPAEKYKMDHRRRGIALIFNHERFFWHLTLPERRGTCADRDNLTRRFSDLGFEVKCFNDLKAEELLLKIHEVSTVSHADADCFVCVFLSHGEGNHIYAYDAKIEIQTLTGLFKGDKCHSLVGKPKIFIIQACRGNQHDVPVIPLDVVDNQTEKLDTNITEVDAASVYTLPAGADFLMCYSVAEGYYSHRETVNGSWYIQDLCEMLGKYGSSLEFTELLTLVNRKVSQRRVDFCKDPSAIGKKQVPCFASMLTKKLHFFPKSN
The experiment in a line: human caspase-6 inhibitors, dose response, biochemical, VEID-R110 fluorescence, cherry-pick (AID 720632).

Test [5] deals with Serine/threonine-protein phosphatase PP1-alpha catalytic subunit (Homo sapiens, UniProt P62136). The experiment in a line: PP1 phosphatase inhibitors, dose response, biochemical, fluorescence (AID 2394).
Sequence of Serine/threonine-protein phosphatase PP1-alpha catalytic subunit (P62136 whole entry): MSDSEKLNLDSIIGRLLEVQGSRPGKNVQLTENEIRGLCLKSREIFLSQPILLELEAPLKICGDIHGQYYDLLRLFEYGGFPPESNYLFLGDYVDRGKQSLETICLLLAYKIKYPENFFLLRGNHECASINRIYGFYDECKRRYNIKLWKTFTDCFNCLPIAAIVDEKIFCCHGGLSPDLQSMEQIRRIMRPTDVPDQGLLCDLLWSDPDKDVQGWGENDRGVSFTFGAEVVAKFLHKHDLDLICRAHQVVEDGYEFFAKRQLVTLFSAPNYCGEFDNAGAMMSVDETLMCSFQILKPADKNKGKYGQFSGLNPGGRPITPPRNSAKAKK
The target of test [6] is Serine/threonine-protein phosphatase (Homo sapiens, UniProt Q9BPW0). Kind of test: PP5 phosphatase inhibitors, dose response, biochemical, fluorescence (AID 2395).
Sequence of Serine/threonine-protein phosphatase (Q9BPW0 whole entry): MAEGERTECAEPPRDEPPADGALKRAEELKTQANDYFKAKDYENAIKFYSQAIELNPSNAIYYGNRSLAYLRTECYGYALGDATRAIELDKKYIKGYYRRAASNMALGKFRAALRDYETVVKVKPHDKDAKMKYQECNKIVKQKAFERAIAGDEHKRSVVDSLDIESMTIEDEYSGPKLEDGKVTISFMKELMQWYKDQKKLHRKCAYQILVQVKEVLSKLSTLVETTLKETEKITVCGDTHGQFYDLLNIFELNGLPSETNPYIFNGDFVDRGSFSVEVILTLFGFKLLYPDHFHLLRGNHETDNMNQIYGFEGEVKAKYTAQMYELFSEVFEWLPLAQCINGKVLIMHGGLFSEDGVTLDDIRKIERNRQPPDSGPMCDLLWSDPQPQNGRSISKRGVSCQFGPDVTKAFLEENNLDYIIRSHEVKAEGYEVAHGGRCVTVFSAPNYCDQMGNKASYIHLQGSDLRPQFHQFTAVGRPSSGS
The target in test [7] is T7, Apoptotic protease-activating factor 1 (Homo sapiens, UniProt O14727).
T7 sequence (O14727 whole entry): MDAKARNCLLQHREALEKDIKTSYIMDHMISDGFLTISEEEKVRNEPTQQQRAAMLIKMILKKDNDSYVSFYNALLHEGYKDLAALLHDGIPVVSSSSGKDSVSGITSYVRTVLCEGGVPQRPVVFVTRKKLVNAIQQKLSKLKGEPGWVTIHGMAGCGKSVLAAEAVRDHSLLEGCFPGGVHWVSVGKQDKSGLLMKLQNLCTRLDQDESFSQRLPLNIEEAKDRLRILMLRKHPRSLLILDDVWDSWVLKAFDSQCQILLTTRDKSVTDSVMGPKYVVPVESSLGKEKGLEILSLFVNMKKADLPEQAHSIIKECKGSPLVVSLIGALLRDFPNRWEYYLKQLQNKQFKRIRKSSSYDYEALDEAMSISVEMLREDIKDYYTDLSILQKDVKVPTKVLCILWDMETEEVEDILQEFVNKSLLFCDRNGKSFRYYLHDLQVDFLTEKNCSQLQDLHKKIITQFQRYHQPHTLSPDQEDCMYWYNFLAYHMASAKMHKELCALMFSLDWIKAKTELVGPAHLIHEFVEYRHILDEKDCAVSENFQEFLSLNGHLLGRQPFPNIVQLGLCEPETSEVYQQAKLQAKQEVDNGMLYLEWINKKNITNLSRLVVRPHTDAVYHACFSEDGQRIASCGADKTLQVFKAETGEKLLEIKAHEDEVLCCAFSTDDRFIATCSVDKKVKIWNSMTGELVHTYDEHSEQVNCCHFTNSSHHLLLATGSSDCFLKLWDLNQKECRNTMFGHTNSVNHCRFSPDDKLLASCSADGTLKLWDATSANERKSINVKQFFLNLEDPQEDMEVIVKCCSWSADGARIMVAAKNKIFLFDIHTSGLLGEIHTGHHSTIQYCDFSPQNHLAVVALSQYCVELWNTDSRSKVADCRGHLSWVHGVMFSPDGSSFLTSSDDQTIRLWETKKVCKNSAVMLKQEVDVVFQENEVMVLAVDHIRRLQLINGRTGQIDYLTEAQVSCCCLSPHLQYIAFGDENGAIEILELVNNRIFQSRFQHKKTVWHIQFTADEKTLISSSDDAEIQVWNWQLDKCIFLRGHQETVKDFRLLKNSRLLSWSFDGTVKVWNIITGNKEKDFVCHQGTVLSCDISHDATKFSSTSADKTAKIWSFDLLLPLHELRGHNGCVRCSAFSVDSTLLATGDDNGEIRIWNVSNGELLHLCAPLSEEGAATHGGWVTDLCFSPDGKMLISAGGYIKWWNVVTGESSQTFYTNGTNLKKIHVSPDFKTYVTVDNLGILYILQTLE
It counts as functional.

Usually IC50 stands for the concentration that inhibits the measured activity by half. Consider `CC(=O)Nc1cc(C)c2nc(NC(C)=O)sc2c1`, for which the IC50 (in [1]; in the test on HEK293) was > 67.6 µM (inactive) throughout.
`Fc1ccc(N/N=C/c2cn(Cc3ccccc3)c3ccccc23)cc1`: the IC50 (in test [2]; on Caspase-3; in [3]; in test [4]) was > 99 µM (inactive) throughout.
A word on the AC50: it is the concentration giving half of the maximal activity seen. With `COC(=O)CCC(=O)OC1(C)C(=O)C=C2C=C(C3CC3)N(CCCCO)C=C2C1=O` (configuration not stated), the AC50 on Caspase-6 was 8.77 µM (active). The IC50 in test [5] was 57.6 µM (not active); in test [6], 11.8 µM (not active); in [7], 19.4 µM (active).
On to `O=C(CCCC(=O)N1CCN(c2ccccc2F)CC1)c1ccccc1`, for which the IC50 (in [1]; with HEK293) was > 67.5 µM (inactive) throughout.
